Reference: patent US7358221B1, “Metathesis depolymerizable surfactants” (Sandia Corporation, priority 2004, dated 2008)

How the values were obtained:
[1] = Critical micelle concentration by dynamic surface tension (surface tensiometry); format: physicochemical; settings: equilibrium mode, aqueous solution
Description: FIGS. 5 and 6 also show the response of dynamic surface tension values (operated in equilibrium mode) measured as a function of concentration for surfactants 4 and the anionic salt 7 in aqueous solution. The physicochemical properties of a surfactant change to a significant degree after reaching the cmc due to the presence of micelles and a surfactant-saturated air-water interface.
A comprehensive listing of all the physicochemical properties calculated for these surfactants is shown above in Table 1.
The surfactant concentration at the intersection of the two lines which are least-squares fit to (1) the rapidly changing surface tension readings and (2) the low, relatively constant surface tension readings at high surfactant concentrations defines the cmc by this method. The cmc's calculated from the surface tension data of surfactants 4 and 7 are 1.9 mmol and 5.9 mmol, respectively. The higher values for cmc as determined by dynamic surface tension compared to Orange OT dye solubilization can be attributed to static (dye solubilization) vs. dynamic (surface tension) measurements of the microenvironment.

[2] = Ring-closing metathesis degradation followed by 1H NMR in chloroform; format: physicochemical; settings: 2 mol. % RuCl2[C21H26N2][CHC6H5]P(C6H11)3 (2nd generation Grubbs catalyst), 25° C.
Description: Decomposition of these surfactant molecules takes place by the action of a ring closing metathesis-active transition metal catalyst on the tail portion of the surfactant, as illustrated in FIG. 8. It is believed that initiation of the decomposition reaction produces styrene. Intramolecular reaction of double bonds further up the tail group produces cyclohexene faster than cross-metathesis with another surfactant.
Cyclohexene formation is clearly evident in the solution within five minutes of adding the catalyst, as evidenced by the appearance of broad singlets at δ=1.62 and 1.97 ppm and a characteristic singlet at δ=5.67 ppm.
^1H NMR also indicates the presence of the former head group as 7-(N,N,N-trimethylammonium)hept-1-enyl iodide (unchanged chemical shift at δ=3.48 ppm from starting surfactant 4) as well as the cross-coupled product, cis/trans-1,12-bis(trimethylammonium)dodec-6-enyl diiodide (equivalent methyls at δ=3.43 ppm).
Within 5 minutes after the introduction of catalyst, cyclohexene was clearly present in solution as evidenced by the appearance of broad singlets at δ=1.62 and 1.97 ppm and a characteristic singlet at δ=5.67 ppm (see FIG. 10).
Additionally, peaks clearly assignable to allyl malonic acid (δ=5.12-5.22 ppm, δ=3.57 ppm, δ=2.68 ppm) were present, by comparison with an authentic sample. […]

## C=CCCCCC=CCCCCC=CCCCCC[N+](C)(C)C.[I-] [Surfactant 4, trimethylnonadeca-6,12,18-trienylammonium iodide]
[1]
  cmc as determined by surface tensiometry: 1.9 mmol
[2]
  time to nearly complete decomposition: ≤ 60 min

## dipotassium heneicosa-2,8,14,20-tetraenyl malonate [Surfactant 7]
[1]
  cmc as determined by surface tensiometry: 5.9 mmol
